# Test results reported in a melting point compilation (Tetko et al.; mined from patent text by program, amines drawn as free bases though some values may be those of a salt).
# Counter-ions that a name gives are not always drawn. Residues, ends and D or L forms follow the SMILES beside them. *: point of attachment. Tfa = O=C(C(F)(F)F)*; NHPh = c1ccc(N*)cc1
row,Compound,melting point [°C]
1,CC(CCCO)C1CCC2C3CCC4CC(O)CCC4(C)C3CC(O)C12C (centres undefined),110 to 116
2,O=C(O)c1cc(-c2ccccc2S(=O)(=O)NCCO)c2ccc3c(-c4ccccc4S(=O)(=O)NCCO)cc(C(=O)O)nc3c2n1,> 300
3,COc1ccc2[nH]cc(C3=CCN(C(=O)NCC4CCC(c5ccccc5)(N(C)C)CC4)CC3)c2c1 (centres undefined),98 to 104
4,CC(C)(C)C(=O)OC1CC(=O)C2(C)CCC3C(CCC4=CC(=O)CCC43C)C12 (centres undefined),148 to 150
5,N=C(N)Nc1nc(CSCCNC2=NS(=O)(=O)N=C2N)cs1,134 to 149
6,COCC(O)c1nc2cc(Cl)ccc2c(O)c1C(=O)Nc1nccs1 (centres undefined),> 270
7,CN(C)CCCCCOc1ccc(-c2nnc(CSCCOc3ccccc3)o2)cc1,51 to 54
8,COC(=O)c1ccc(OC)nc1S(=O)(=O)NC(=O)Nc1nc(OC)cc(OC)n1,194 to 196
9,C=CCc1cc2c(c(CC=C)c1O)CCC(=O)N2CCCn1cnnc1,129 to 132
10,Cc1sc2c(c1C)CNC(Cl)=N2,170 to 172
11,Cc1cnc(C2=NC(C)(C(C)C)C(=O)N2)c(C(=O)C(=O)N(C)C)c1 (centres undefined),180 to 182
12,CCCc1c(OCCOCCOc2c(C(C)=O)ccc(OCCCCCC(=O)O)c2CCC)ccc(C(C)=O)c1O,55 to 57
13,COc1cc(C(=O)NS(=O)(=O)c2ccccc2Cl)ccc1Cn1cc(CCC(=O)N(C)C)c2ccc(CCC(=O)N(C)C)cc21,134 to 137
14,CCCn1c(=O)c2[nH]c(-c3cc(C)n(CC(=O)Nc4ccccc4)n3)nc2n(CCC)c1=O,255 to 257
15,Cc1ccc(Cn2c(=O)c3c(N4CCN(C)CC4)cc(Cl)cc3n(Cc3ccccc3)c2=O)o1,132 to 136
16,Cc1cc(C#N)cc(C)c1Oc1nc(Nc2ccc(C#N)cc2)ncc1N,> 300
17,CCCCOCCOc1ccc(-c2ccc3c(c2)C=C(C(=O)Nc2ccc(N(C)Cc4nncn4CCC)cc2)CCN3CC(C)C)cc1,134 to 136

row,Compound,melting point [°C]
1,CCCCCc1cc2c(nc(O)n2CCCNS(C)(=O)=O)c(N)n1,174 to 176
2,Clc1ccc2c3c(cnc2c1)OCCN3,219 to 220
3,NS(=O)(=O)c1ncnc2c1ccn2C1CC(O)C(CO)O1 (centres undefined),175 to 177
4,Cc1noc(NS(=O)(=O)c2ccccc2-c2ccc(-c3ncco3)cc2CC#N)c1C,103 to 110
5,Cc1cc2c(s1)C(C(=O)O)CC2 (centres undefined),105 to 107
6,Nc1nc2c(s1)CCN(CC=Cc1cccc(OCc3ccccn3)c1)CC2,35 to 40
7,Cn1cncc1C(O)(c1ccc(F)cc1)c1ccc2nc(Cl)nc(-c3cccc(Cl)c3)c2c1 (centres undefined),212
8,CCc1cc2c(ccc(=O)n2Cc2ccc(NC(=O)c3ccccc3C(=O)O)cc2)c(CC)n1,237 to 240
9,CNc1cc(-c2sc(N)nc2-c2cccc(C)n2)ccc1[N+](=O)[O-],100 to 102
10,CC(CCCC(C)(C)O)C1CCC2C3=CC=C4CCCC(O)C4(C)C3CCC21C (centres undefined),151 to 152
11,CCCCC(=O)NC(C#N)C(=O)OCC (centres undefined),88
12,CCOC(=O)C1=C(C)NC(C)=C(C(=O)OCC)C1c1ccccc1OCc1ccccc1,134 to 136
13,COc1cc(NC(N)=S)c(Cl)c(OC)c1,159 to 162
14,CSc1sc(C(C)=O)cc1[N+](=O)[O-],191 to 193
15,CC(CNC(=O)CN1C(=O)CCC1C)N1CCCCC1 (centres undefined),111 to 112
16,C=CC(=O)OC(C)OC(=O)c1c2ccccc2cc2ccccc12 (centres undefined),66 to 68

# The remaining lines, values ahead:
row,melting point [°C],Compound
1,183 to 185,CN1CCC(c2cnn3c(-c4cccc(NC(=O)c5cccc(C(F)(F)F)c5)c4)ccnc23)CC1
2,> 300,O=C(O)c1ccc2c(c1)C(=O)CC(c1ccccc1)=N2
3,100 to 102,NS(=O)(=O)Oc1cccc(C(F)(F)F)c1
4,204 to 207,C[C@H](NC(=O)C(F)(F)F)C(=O)N1CCC[C@H]1C(=O)Nc1ccccc1 (Tfa-Ala-Pro-NHPh)
5,134 to 136,COc1ccc2c(c1)C(=O)OC2C(Cl)(Cl)Cl (centres undefined)
6,213 to 214,CC(C)(C)c1ccc(C=CC(=O)c2ccc(N3CCN(c4ccncc4)CC3)cc2)cc1
7,124 to 125,COC(=O)c1ccc(-c2nc(OC(C)=O)c(C)s2)cc1
8,139 to 141,CNC(=O)n1nc(Oc2ccc([N+](=O)[O-])c(C(F)(F)F)c2)cc1C
9,169 to 171,COc1cc(N)c(Cl)cc1C(=O)NC1CN(C)N(C)C1
10,83 to 86,Cc1cccc(Cl)c1CO
11,228 to 229,CC1CC(=O)NN=C1c1ccc(NC(=NC#N)NCc2ccccc2)cc1 (centres undefined)
12,105,O=C(CCCCCBr)NC(C(=O)c1ccc(Cl)cc1)c1ccc(Cl)cc1 (centres undefined)
13,203,O=C(Nc1ccc2[nH]c(=S)oc2c1)C(=O)N1CCC(Cc2ccccc2)CC1
14,360,CC(C)(NC1=NS(=O)(=O)c2sc(Cl)cc2N1)c1ccccc1
15,53 to 55,ClCCCOc1ccc(-n2ccnc2)cc1
16,125 to 126,Cc1nn(-c2ccc(C(F)(F)F)cn2)cc1CCCOc1cc(CCC(=O)O)n(-c2ccccc2)n1
17,236 to 237,CC(C)(C)OC(=O)N1C[C@@H]2OCc3c(-c4ccccc4)nnn3[C@H]2C1
18,131 to 133,CCOC(=O)/C=C/c1ccc(O)cc1OCc1ccccc1

row,melting point [°C],Compound
1,198,CC(C)(C)OC(=O)NC(C(=O)Oc1ccc(/C=c2\[nH]c(=O)/c(=C/c3ccccc3)[nH]c2=O)nc1)c1ccccc1 (centres undefined)
2,124 to 125,O=C(OCC(O)CO)C(=O)c1ccc(OCCOc2ccc3ccccc3c2)cc1 (centres undefined)
3,243,Cc1cc(-c2cc(C(F)(F)F)n3ncc(C(=O)O)c3n2)ccc1Cl
4,135 to 137,C#CCNC(=O)N1CC(Oc2ccc(C(F)(F)F)cc2)C1
5,112 to 113,CC(C)c1nn(-c2ccc(C(F)(F)F)cn2)cc1COc1cc(C=O)n(C)n1
6,139 to 140,O=S(=O)(NCC1CCN(C[C@H]2COc3ccc(C(F)(F)F)cc3O2)CC1)c1cccc(Cl)c1Cl
7,238,COc1ccc(C2=C(C#N)C(c3cccc4nsnc34)c3c[nH]nc3N2)cc1 (centres undefined)
8,117 to 118,COc1ccc([C@@H]2Sc3cc(C)c(C)cc3N(CCN(C)C)C(=O)[C@@H]2O)cc1
9,205 to 207,CC1OC2(CCN(c3nc(=O)c4cc(C(F)(F)F)cc([N+](=O)[O-])c4s3)CC2)OC1C (centres undefined)
10,166,O=C(O)CCCc1cc2nc(Cl)ccc2n1S(=O)(=O)c1ccc2c(c1)OCCO2
11,142 to 144,O=C(NCCCc1ccncc1)N(CCC12CC3CC(CC(C3)C1)C2)Cc1cccs1
12,92 to 93.5,CS(=O)c1ccc(Oc2ccc(Cl)c(Cl)c2)cc1 (centres undefined)
13,151 to 152,COc1ccc2cc(Br)ccc2c1[N+](=O)[O-]
14,198 to 200,Cc1ccc(C2C(=O)CCC2=O)c(C)c1
15,169 to 171,Cc1cc(=O)n2c3c(cc(C(O)(C(F)(F)F)C(F)(F)F)cc13)CCCC2
16,143 to 144,Cc1cc(C)cc(COC(=O)C(Cc2c[nH]c3ccccc23)NC(=O)C2CCCCC2)c1 (centres undefined)
17,120 to 122,CCc1ccc2c(c1)Cc1cc(C(C)=O)ccc1-2
18,194 to 195,CCCn1c(COCC)nc2c(N)nc3cc(OC4CCN(C(=O)OC(C)(C)C)CC4)ccc3c21
